Experimental data from ChEMBL document CHEMBL5528088, “Design and Synthesis of Cyclolipopeptide Mimics of Dysoxylactam A and Evaluation of the Reversing Potencies against P-Glycoprotein-Mediated Multidrug Resistance” (J Med Chem, 2024).
Values after ≈ are worked out from the molar mass of the structure shown. Active and inactive are the calls of the source. The calls are words filed in the database; no cut-off is given here.

How the values were obtained:
[1] = AUClast in Sprague-Dawley rat at 1 mg/kg, iv measured for 24 hrs by LC-MS analysis; type: ADME, organism-based; settings: in vivo
KBv200 [2] = assay: Effect on P-gp level in human KBv200 cells at 1 to 10 uM incubated for 24 hrs by Western blot analysis; type: functional, cell-based; settings: dose 1-10 µM
KBv200 [3] = assay: Reversal fold, ratio of VNR IC50 to VNR IC50 in presence of test compound for human KBv200 cells incubated for 72 hrs by SRB assay; type: functional
NCI/ADR-RES [4] = assay: Reversal fold, ratio of PTX IC50 to PTX IC50 in presence of test compound for reversal effect on P-gp-mediated multidrug resistance in human NCI/ADR-RES cells incubated for 72 hrs by SRB assay; type: functional
KBv200 [5] = assay: Inhibition of ADR efflux in human KBv200 cells incubated for 3 hrs by fluorescence microscopy; type: functional, cell-based
[6] = Toxicity in Balb/cA nude mouse xenografted with human KBv200 cells assessed as change in body weight at 75 mg/kg, ip administered upto day 8 and measured for 14 days; type: organism-based; settings: in vivo, 336 h, time 14 day
[7] = Inhibition of ADR efflux in human KBv200 cells assessed as ADR accumulation at 10 uM incubated for 3 hrs by flow cytometry (reference value: 25.7 %); type: functional; parameters: scale not given: the % may be the effect or the level left
KBv200 [8] = assay: Reversal fold, ratio of VNR IC50 to VNR IC50 in presence of test compound for reversal effect on P-gp-mediated multidrug resistance in human KBv200 cells incubated for 72 hrs by SRB assay; type: functional
[9] = MRT (infinity) in Sprague-Dawley rat at 1 mg/kg, iv measured for 24 hrs by LC-MS analysis; type: ADME, organism-based; settings: in vivo
[10] = Tmax in Sprague-Dawley rat at 30 mg/kg, po measured for 24 hrs by LC-MS analysis; type: ADME, organism-based; settings: in vivo
NCI/ADR-RES [11] = assay: Reversal fold, ratio of ADR IC50 to ADR IC50 in presence of test compound for reversal effect on P-gp-mediated multidrug resistance in human NCI/ADR-RES cells incubated for 72 hrs by SRB assay; type: functional
KBv200 [12] = assay: Antitumor activity against human KBv200 cells xenografted in Balb/cA nude mouse assessed as decrease in tumor volume at 75 mg/kg, ip administered upto day 8 and measured for 14 days in presence of VNR; type: functional, organism-based; settings: time 14.0 day
NCI/ADR-RES [13] = assay: Reversal fold, ratio of VNR IC50 to VNR IC50 in presence of test compound for reversal effect on P-gp-mediated multidrug resistance in human NCI/ADR-RES cells incubated for 72 hrs by SRB assay; type: functional
NCI/ADR-RES [14] = assay: Effect on P-gp level in human NCI/ADR-RES cells at 1 to 10 uM incubated for 24 hrs by Western blot analysis; type: functional, cell-based; settings: dose 1-10 µM
KBv200 [15] = assay: Reversal fold, ratio of ADR IC50 to ADR IC50 in presence of test compound for reversal effect on P-gp-mediated multidrug resistance in human KBv200 cells incubated for 72 hrs by SRB assay; type: functional
[16] = Half life in Sprague-Dawley rat at 1 mg/kg, iv measured for 24 hrs by LC-MS analysis; type: ADME, organism-based; settings: in vivo
[17] = AUC (infinity) in Sprague-Dawley rat at 1 mg/kg, iv measured for 24 hrs by LC-MS analysis; type: ADME, organism-based; settings: in vivo
[18] = molecular target: T1, Broad substrate specificity ATP-binding cassette transporter ABCG2 (Homo sapiens, UniProt Q9UNQ0); assay: Inhibition of BCRP (unknown origin) expressed in HEK293 cells assessed as increase in mitoxantrone accumulation by flow cytometry; type: cell-based
T1 sequence (Q9UNQ0 whole entry): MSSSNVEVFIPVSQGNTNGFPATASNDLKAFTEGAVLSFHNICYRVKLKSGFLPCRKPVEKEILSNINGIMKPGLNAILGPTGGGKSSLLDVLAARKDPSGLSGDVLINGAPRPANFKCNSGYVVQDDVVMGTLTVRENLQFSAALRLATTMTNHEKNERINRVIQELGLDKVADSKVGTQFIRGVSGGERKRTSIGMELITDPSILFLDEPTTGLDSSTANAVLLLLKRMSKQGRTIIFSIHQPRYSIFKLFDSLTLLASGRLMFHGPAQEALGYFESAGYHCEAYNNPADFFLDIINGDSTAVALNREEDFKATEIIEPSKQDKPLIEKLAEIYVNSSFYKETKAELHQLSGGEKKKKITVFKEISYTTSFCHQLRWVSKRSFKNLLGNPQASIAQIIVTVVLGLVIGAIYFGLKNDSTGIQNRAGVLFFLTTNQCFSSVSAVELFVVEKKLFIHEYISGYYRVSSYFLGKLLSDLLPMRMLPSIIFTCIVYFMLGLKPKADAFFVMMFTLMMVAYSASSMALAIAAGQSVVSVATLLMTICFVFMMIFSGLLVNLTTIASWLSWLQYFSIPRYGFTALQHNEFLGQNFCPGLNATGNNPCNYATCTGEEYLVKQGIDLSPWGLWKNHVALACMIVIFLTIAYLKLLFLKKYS

[19] = AUClast in Sprague-Dawley rat at 30 mg/kg, po measured for 24 hrs by LC-MS analysis; type: ADME, organism-based; settings: in vivo
[20] = Inhibition of ADR uptake in human KBv200 cells assessed as ADR accumulation at 1 uM incubated for 10 mins by flow cytometry (reference value: 6.2 %); type: functional; parameters: scale not given: the % may be the effect or the level left
KBv200 [21] = assay: Reversal fold, ratio of PTX IC50 to PTX IC50 in presence of test compound for reversal effect on P-gp-mediated multidrug resistance in human KBv200 cells incubated for 72 hrs by SRB assay; type: functional
[22] = Lipophilicity, logD of compound at pH 7.4; type: physicochemical; settings: buffer
[23] = Inhibition of ADR uptake in human KBv200 cells assessed as ADR accumulation at 10 uM incubated for 10 mins by flow cytometry (reference value: 6.2 %); type: functional; parameters: scale not given: the % may be the effect or the level left
KBv200 [24] = assay: Cytotoxicity against human KBv200 cells at 10 uM incubated for 72 hrs by SRB assay relative to control; type: functional
KBv200 [25] = assay: Inhibition of ADR uptake in human KBv200 cells at 10 uM incubated for 10 mins by fluorescence microscopy; type: functional, cell-based
KBv200 [26] = assay: Inhibition of ADR uptake in human KBv200 cells at 10 uM incubated for 10 mins by flow cytometry; type: functional, cell-based
KBv200 [27] = assay: Inhibition of cell proliferation in human KBv200 cells assessed as inhibition of VNR at 10 uM incubated for 72 hrs in presence of VNR by SRB assay relative to control; type: functional
KBv200 [28] = assay: Inhibition of Rho-123 uptake in human KBv200 cells at 10 uM incubated for 10 mins by flow cytometry; type: functional, cell-based
KBv200 [29] = assay: Antitumor activity against human KBv200 cells xenografted in Balb/cA nude mouse assessed as decrease in tumor weight at 75 mg/kg, ip administered upto day 8 and measured for 14 days in presence of VNR; type: functional, organism-based; settings: time 14.0 day
[30] = MRT (infinity) in Sprague-Dawley rat at 30 mg/kg, po measured for 24 hrs by LC-MS analysis; type: ADME, organism-based; settings: in vivo
[31] = Toxicity in Balb/cA nude mouse xenografted with human KBv200 cells assessed as animal mortality at 75 mg/kg, ip administered upto day 8 and measured for 14 days; type: organism-based; settings: in vivo, 336 h, time 14 day
KBv200 [32] = assay: Inhibition of calcein AM uptake in human KBv200 cells at 10 uM incubated for 10 mins by flow cytometry; type: functional, cell-based
[33] = molecular target: Multidrug resistance-associated protein 1 (Homo sapiens, UniProt P33527); assay: Inhibition of MRP1 (unknown origin) expressed in HEK293 cells assessed as increase in mitoxantrone accumulation by flow cytometry; type: cell-based
Sequence of Multidrug resistance-associated protein 1 (P33527 whole entry): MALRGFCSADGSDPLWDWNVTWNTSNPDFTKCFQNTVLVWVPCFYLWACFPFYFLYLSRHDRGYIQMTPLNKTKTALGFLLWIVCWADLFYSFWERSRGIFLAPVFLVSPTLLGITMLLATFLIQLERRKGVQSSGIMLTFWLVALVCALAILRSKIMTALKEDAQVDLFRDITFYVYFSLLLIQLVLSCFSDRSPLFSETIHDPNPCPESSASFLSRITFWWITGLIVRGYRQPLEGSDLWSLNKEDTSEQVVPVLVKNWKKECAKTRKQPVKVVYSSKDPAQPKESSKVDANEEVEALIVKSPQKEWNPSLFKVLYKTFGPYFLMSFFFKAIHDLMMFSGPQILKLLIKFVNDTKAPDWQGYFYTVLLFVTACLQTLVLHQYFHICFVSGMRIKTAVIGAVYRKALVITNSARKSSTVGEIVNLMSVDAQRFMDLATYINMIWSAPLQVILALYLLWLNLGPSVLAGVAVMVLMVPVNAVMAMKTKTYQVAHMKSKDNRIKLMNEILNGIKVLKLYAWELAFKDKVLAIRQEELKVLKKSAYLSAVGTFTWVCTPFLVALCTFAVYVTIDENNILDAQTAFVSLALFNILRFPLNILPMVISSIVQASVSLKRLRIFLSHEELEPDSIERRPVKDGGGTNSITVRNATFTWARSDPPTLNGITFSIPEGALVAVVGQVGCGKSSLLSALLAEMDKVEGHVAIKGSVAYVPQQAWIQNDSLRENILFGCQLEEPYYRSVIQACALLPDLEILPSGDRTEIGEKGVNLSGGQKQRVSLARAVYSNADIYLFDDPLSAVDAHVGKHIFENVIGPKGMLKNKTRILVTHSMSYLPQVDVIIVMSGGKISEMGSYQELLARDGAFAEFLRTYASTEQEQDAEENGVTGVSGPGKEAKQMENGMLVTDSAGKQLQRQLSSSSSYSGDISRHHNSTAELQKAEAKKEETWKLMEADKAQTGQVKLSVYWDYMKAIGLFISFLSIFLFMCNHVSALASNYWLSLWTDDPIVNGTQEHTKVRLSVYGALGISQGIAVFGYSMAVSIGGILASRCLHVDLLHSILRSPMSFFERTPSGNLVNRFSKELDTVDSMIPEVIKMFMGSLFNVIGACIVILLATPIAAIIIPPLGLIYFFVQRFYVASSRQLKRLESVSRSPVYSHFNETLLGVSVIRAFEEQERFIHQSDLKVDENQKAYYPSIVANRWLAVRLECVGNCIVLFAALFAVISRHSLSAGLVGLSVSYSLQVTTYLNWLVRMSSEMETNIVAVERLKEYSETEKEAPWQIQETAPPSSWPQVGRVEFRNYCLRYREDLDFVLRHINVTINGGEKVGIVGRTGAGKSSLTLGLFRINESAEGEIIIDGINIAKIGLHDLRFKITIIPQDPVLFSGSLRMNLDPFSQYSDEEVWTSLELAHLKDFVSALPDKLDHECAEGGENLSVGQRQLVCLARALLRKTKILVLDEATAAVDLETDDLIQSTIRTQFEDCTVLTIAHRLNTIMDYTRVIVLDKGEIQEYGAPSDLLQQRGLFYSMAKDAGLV

[34] = Cmax in Sprague-Dawley rat at 30 mg/kg, po measured for 24 hrs by LC-MS analysis; type: ADME, organism-based; settings: in vivo
[35] = Aqueous solubility of compound at neutral pH; type: physicochemical
KBv200 [36] = assay: Antitumor activity against human KBv200 cells xenografted in Balb/cA nude mouse assessed as decrease in tumor size at 75 mg/kg, ip administered upto day 8 and measured for 14 days; type: functional, organism-based; settings: time 14.0 day
[37] = AUC (infinity) in Sprague-Dawley rat at 30 mg/kg, po measured for 24 hrs by LC-MS analysis; type: ADME, organism-based; settings: in vivo
[38] = Inhibition of ADR efflux in human KBv200 cells assessed as ADR accumulation at 1 uM incubated for 3 hrs by flow cytometry (reference value: 25.7 %); type: functional; parameters: scale not given: the % may be the effect or the level left
[39] = Volume of distribution at steady state in Sprague-Dawley rat at 1 mg/kg, iv measured for 24 hrs by LC-MS analysis; type: ADME, organism-based; settings: in vivo, read-out: Vdss
KBv200 [40] = assay: Effect on P-gp level in human KBv200 cells incubated for 24 hrs by qRT-PCR analysis; type: functional, cell-based
[41] = Half life in Sprague-Dawley rat at 30 mg/kg, po measured for 24 hrs by LC-MS analysis; type: ADME, organism-based; settings: in vivo
[42] = Oral bioavailability in Sprague-Dawley rat at 30 mg/kg measured for 24 hrs by LC-MS analysis; type: ADME, organism-based; settings: in vivo
NCI/ADR-RES [43] = assay: Reversal effect on P-gp-mediated multidrug resistance in human NCI/ADR-RES cells assessed as inhibition of cell proliferation incubated for 72 hrs by SRB assay; type: functional, cell-based
KBv200 [44] = assay: Inhibition of cell proliferation in human KBv200 cells incubated for 72 hrs by SRB assay; type: functional, cell-based; settings: KBv200, 72 h
KBv200 [45] = assay: Inhibition of cell proliferation in human KBv200 cells at 10 uM incubated for 72 hrs by SRB assay relative to control; type: functional
KBv200 [46] = assay: Reversal effect on P-gp-mediated multidrug resistance in human KBv200 cells assessed as inhibition of cell proliferation incubated for 72 hrs by SRB assay; type: functional, cell-based; settings: KBv200, 72 h
KBv200 [47] = assay: Antitumor activity against human KBv200 cells xenografted in Balb/cA nude mouse assessed as decrease in tumor size at 8 mg/kg, iv administered on day 0,4,8 and measured for 14 days; type: functional, organism-based; settings: time 14.0 day

SMILES: CC(C)[C@@H]1NC(=O)CCCCCCCCCCCC(=O)N[C@@H](Cc2ccccc2)COC1=O
- AUC(0-t) at 24 h [1]: 1260 ng·h/mL
- Activity (KBv200 [2]): inactive
- Ratio IC50 (KBv200 [3]): 124
- Ratio IC50 (NCI/ADR-RES [4]): 159.9
- inhibition (KBv200 [5]): Active
- Activity [6]: Non-Toxic
- Activity [7]: 88.6%
- Ratio IC50 (KBv200 [8]): 102.4
- MRT inf [9]: 0.75 h
- Tmax [10]: 0.25 h
- Ratio IC50 (NCI/ADR-RES [11]): 33.9
- Activity (KBv200 [12]): Active
- Ratio IC50 (NCI/ADR-RES [13]): 133.4
- Activity (NCI/ADR-RES [14]): inactive
- Ratio IC50 (KBv200 [15]): 12.1
- half-life [16]: 1.09 h
- AUC [17]: 1263 ng·h/mL
- inhibition (INH) [18]: Active
- AUC(0-t) at 24 h [19]: 32.3 ng·h/mL
- Activity [20]: 6.6%
- Ratio IC50 (KBv200 [21]): 49.6
- logD [22]: 5
- Activity [23]: 86.4%
- Activity (KBv200 [24]): 2.7%
- inhibition (KBv200 [25]): inactive
- inhibition (KBv200 [26]): inactive
- inhibition at 10 µM (KBv200 [27]): 96.9%
- inhibition (KBv200 [28]): Active
- Activity (KBv200 [29]): Active
- MRT inf [30]: 3.11 h
- Activity [31]: Non-Toxic
- inhibition (KBv200 [32]): Active
- inhibition (INH) [33]: Active
- Cmax [34]: 34.4 ng/mL
- solubility [35]: 0.64 µg/mL (≈ 1.4 µM)
- Activity (KBv200 [36]): Active
- AUC(0-inf) [37]: 43.4 ng·h/mL
- Activity [38]: 33.8%
- Vd [39]: 1.53 L/kg
- Activity (KBv200 [40]): inactive
- half-life [41]: 2.38 h
- bioavailability [42]: 0.09%

SMILES: CCC1=C[C@@H]2CN(C1)Cc1c([nH]c3ccccc13)[C@@](C(=O)OC)(c1cc3c(cc1OC)N(C)[C@H]1[C@@](O)(C(=O)OC)[C@H](OC(C)=O)[C@]4(CC)C=CCN5CC[C@]31[C@@H]54)C2 [VINORELBINE]
- IC50 (NCI/ADR-RES [43]): 3720 nM
- IC50 (KBv200 [44]): 298 nM
- inhibition at 10 µM (KBv200 [45]): 4.9%
- IC50 (KBv200 [46]): 205 nM
- Activity (KBv200 [47]): Active

SMILES: CC[C@H](C)C1OC(=O)[C@H](C(C)C)NC(=O)CCCCCCC[C@H](O)[C@@H](C)C[C@@H]1C (stereo partly drawn)
- Ratio IC50 (KBv200 [3]): 85
- Ratio IC50 (NCI/ADR-RES [4]): 109.2
- inhibition (KBv200 [5]): Active
- Activity [7]: 90.6%
- Ratio IC50 (KBv200 [8]): 64
- Ratio IC50 (NCI/ADR-RES [11]): 23.9
- Ratio IC50 (NCI/ADR-RES [13]): 65.3
- Ratio IC50 (KBv200 [15]): 12.4
- inhibition (INH) [18]: Active
- Activity [20]: 7.4%
- Ratio IC50 (KBv200 [21]): 49.6
- Activity [23]: 91.7%
- Activity (KBv200 [24]): 9.7%
- inhibition (KBv200 [25]): inactive
- inhibition (KBv200 [26]): inactive
- inhibition at 10 µM (KBv200 [27]): 99.5%
- inhibition (KBv200 [28]): Active
- inhibition (KBv200 [32]): Active
- inhibition (INH) [33]: Active
- Activity [38]: 29%
- Activity (KBv200 [40]): inactive
